The subject of one test is MDA-MB-231. In words: Anticancer activity against human MDA-MB-231 cells assessed as cell growth inhibition.
The test system of another test is MCF7. Description: Anticancer activity against human MCF7 cells assessed as cell growth inhibition.
Test [1] relates to Panel NCI-60 (60 carcinoma cell lines). In words: Anticancer activity against human Panel NCI-60 (60 carcinoma cell lines) cells assessed as cell growth inhibition. The test is classed as functional.
In a further test the test system is A498. In words: Anticancer activity against human A498 cells assessed as cell growth inhibition. The test is classed as functional, cell-based.
The target in test [2] is T1, Nuclear receptor subfamily 6 group A member 1 (Homo sapiens, UniProt Q15406).
T1 sequence (Q15406 whole entry): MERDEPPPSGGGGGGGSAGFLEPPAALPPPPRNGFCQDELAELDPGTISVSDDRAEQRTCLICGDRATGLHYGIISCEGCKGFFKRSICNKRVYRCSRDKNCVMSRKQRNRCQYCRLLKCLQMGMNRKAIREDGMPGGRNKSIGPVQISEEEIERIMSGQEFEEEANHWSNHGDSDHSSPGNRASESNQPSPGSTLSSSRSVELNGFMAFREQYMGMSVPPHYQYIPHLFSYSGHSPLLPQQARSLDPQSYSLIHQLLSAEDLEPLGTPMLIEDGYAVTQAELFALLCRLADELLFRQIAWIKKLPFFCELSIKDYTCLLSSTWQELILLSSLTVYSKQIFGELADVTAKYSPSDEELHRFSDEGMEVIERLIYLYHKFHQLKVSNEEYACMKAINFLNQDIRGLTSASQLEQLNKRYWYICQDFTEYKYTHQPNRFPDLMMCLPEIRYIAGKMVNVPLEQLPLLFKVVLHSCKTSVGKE
Description: Antagonist activity at GCNF (unknown origin) by luciferase reporter gene assay. In general terms: Reporter assays use an easily measured gene product as a stand-in for the process of interest.

The test system of another test is LOX IMVI. In words: Anticancer activity against human LOX IMVI cells assessed as cell growth inhibition measured after 48 hrs by SRB assay. In kind it is functional. A general note: In SRB staining, fixed cells bind dye roughly in proportion to their protein.
The subject of the next test is 786-0. Description: Anticancer activity against human 786-0 cells assessed as cell growth inhibition measured after 48 hrs by SRB assay. In kind it is functional.
Test [3] deals with Panel NCI-60 (60 carcinoma cell lines). Description: Anticancer activity against human Panel NCI-60 (60 carcinoma cell lines) line assessed as cell growth inhibition measured after 48 hrs by SRB assay. In kind it is functional.
The test system of the next test is HCT-116. In words: Anticancer activity against human HCT-116 cells assessed as cell growth inhibition measured after 48 hrs by SRB assay. In kind it is functional.
The subject of a further test is SF-295. In words: Anticancer activity against human SF-295 cells assessed as cell growth inhibition measured after 48 hrs by SRB assay. In kind it is functional.
A further test concerns A549. Description: Anticancer activity against human A549 cells assessed as cell growth inhibition measured after 48 hrs by SRB assay. The test is classed as functional.
In the next test the test system is NCI-H661. In words: Anticancer activity against human NCI-H661 cells assessed as cell growth inhibition. The test is classed as functional, cell-based.

As usually defined, the IC50 is the concentration that inhibits the measured activity by half. For `C[C@H](c1ccc(Cl)cc1)N1C(=O)c2cc(I)ccc2N(CCCCC(=O)O)C(=O)[C@@H]1c1ccc(Cl)cc1`, the IC50 in the test on MDA-MB-231 is 67 µM; with MCF7, 7 µM.

The GI50 is the concentration at which growth is held to half of that of the control. `O=C1Nc2ccccc2C(=O)N2C=C(c3ccc(Br)cc3)C[C@@H]12`: the GI50 is 7.41 µM in test [1] and 510 nM with A498.

As a reminder, the EC50 is the midpoint of the concentration-response curve. Low readings indicate an effect from little substance, high ones a need for much substance. With `O=C1Nc2ccc(Br)cc2C(=O)N(Cc2ccccc2Sc2ccc(Cl)cc2)[C@@H]1Cc1ccccc1`, the EC50 in test [2] is under 7 µM. The IC50 in the test on A498 was 5 µM.

For the compound `COC(=O)C[C@@H]1NC(=O)c2cc(Oc3cc(C)ccc3C)c(NC(=O)c3cc(OC)c(OC)c(OC)c3)cc2NC1=O`, the GI50 is 1360 nM in the test on LOX IMVI; 1280 nM with 786-0; 1350 nM in test [3]; 1340 nM in the test with HCT-116; 960 nM in the test with SF-295; 1170 nM in the test with A549.

Regarding `COC(=O)CC[C@@H]1NC(=O)c2cc(Oc3cc(C)cc(C)c3)c(NC(=O)c3cc(OC)c(OC)c(OC)c3)cc2NC1=O`, the 50% growth inhibitory concentration (GI50) with LOX IMVI turned out to be 1920 nM; in the test with 786-0, 1860 nM; in test [3], 1200 nM; in the test with HCT-116, 2080 nM; in the test on SF-295, 1100 nM; with A549, 1260 nM.

In the case of `COC(=O)C[C@@H]1NC(=O)c2cc(OCc3ccccc3)c(NC(=O)c3cc(OC)c(OC)c(OC)c3)cc2NC1=O`, the GI50 (with LOX IMVI; in the test with 786-0; in test [3]; in the test with HCT-116; with SF-295; with A549) was over 50000 nM each time.

Regarding `CCOC(=O)C1NC(=O)c2cc(Oc3cc(C)cc(C)c3)c(NC(=O)c3cc(OC)c(OC)c(OC)c3)cc2NC1=O` (centres undefined), the 50% growth inhibitory concentration (GI50) (with LOX IMVI; with 786-0; in [3]; in the test with HCT-116; with SF-295; with A549) was over 50000 nM each time.

Regarding `CCN(CC)C(=O)C[C@@H]1NC(=O)c2cc(Oc3cc(C)c(F)c(C)c3)c(NC(=O)c3cc(OC)c(OC)c(OC)c3Cl)cc2NC1=O`, the GI50 in the test with LOX IMVI turned out to be 8 nM; in the test with 786-0 it was 61 nM; in test [3], 16 nM; with HCT-116 it was 17 nM; with SF-295, 27 nM; in the test with A549 it was 26 nM.

For the compound `COc1cc(C(=O)Nc2cc3c(cc2Oc2cc(C)cc(C)c2)C(=O)N[C@@H](CC(=O)N2CCN(C)CC2)C(=O)N3)cc(OC)c1OC`, the concentration for 50% growth inhibition (GI50) in the test on LOX IMVI was 90 nM; in the test on 786-0 it was 1570 nM; in test [3], 1580 nM; in the test on HCT-116, 140 nM; in the test on SF-295, 670 nM; in the test with A549 it was 180 nM.

Regarding `COC(=O)C[C@@H]1NC(=O)c2cc(Oc3cc(C)cc(C)c3)c(NC(=O)c3cc(OC)c(OC)c(OC)c3)cc2NC1=O`, the GI50 with LOX IMVI was determined as 20 nM; in the test on 786-0, 70 nM; in [3] it was 50 nM; with HCT-116, 30 nM; with SF-295 it was 70 nM; in the test with A549, 70 nM.

As for `COC(=O)C[C@@H]1NC(=O)c2cc(Oc3cccc(N(C)C)c3)c(NC(=O)c3cc(OC)c(OC)c(OC)c3)cc2NC1=O`, the GI50 in the test with LOX IMVI came to 5260 nM; with 786-0 it was 14900 nM; in test [3] it was 4680 nM; in the test with HCT-116, 5250 nM; in the test with SF-295, 3090 nM; in the test with A549, 3410 nM.

`CCN(CC)C(=O)C[C@H]1C(=O)Nc2cc(NC(=O)c3cc(OC)c(OC)c(OC)c3Cl)c(Oc3cc(C)c(F)c(C)c3)cc2C(=O)N1C`: the concentration for 50% growth inhibition (GI50) with LOX IMVI was 9 nM; in the test with 786-0, 30 nM; in test [3] it was 18 nM; in the test on HCT-116, 22 nM; in the test on SF-295 it was 19 nM; in the test on A549, 21 nM.

On to `CCc1nc(C[C@@H]2NC(=O)c3cc(Oc4cc(C)cc(C)c4)c(NC(=O)c4cc(OC)c(OC)c(OC)c4)cc3NC2=O)no1`, for which the GI50 in the test on LOX IMVI is 240 nM; with 786-0, 660 nM; in [3], 360 nM; in the test on HCT-116 it was 330 nM; in the test on SF-295, 120 nM; in the test with A549 it was 270 nM.

In the case of `COC(=O)C[C@@H]1NC(=O)c2cc(Oc3cc(C)cc(C)c3)c(NCc3cc(OC)c(OC)c(OC)c3)cc2NC1=O`, the GI50 (with LOX IMVI; in the test with 786-0; in test [3]; in the test with HCT-116; with SF-295; in the test with A549) was over 50000 nM each time.

On to `COc1cc(C(=O)Nc2cc3c(cc2Oc2cc(C)cc(C)c2)C(=O)N[C@@H](CC(N)=O)C(=O)N3)cc(OC)c1OC`, for which the GI50 amounted to 350 nM in the test on LOX IMVI; 3450 nM in the test with 786-0; 1120 nM in test [3]; 790 nM in the test with HCT-116; 2010 nM with SF-295; 3970 nM in the test on A549.

Turning to `COC(=O)C[C@@H]1NC(=O)c2cc(Oc3ccccc3)c(NC(=O)c3cc(OC)c(OC)c(OC)c3)cc2NC1=O`, the GI50 (in the test on LOX IMVI; in the test on 786-0; in test [3]; in the test with HCT-116; in the test on SF-295; in the test with A549) was over 50000 nM each time.

With `O=C(CCCCCN1C(=O)c2ccccc2N(Cc2ccccc2)C(=O)[C@@H]1Cc1ccccc1)NO`, the IC50 in the test with NCI-H661 turned out to be 6 µM.

Turning to `COC(=O)C[C@@H]1NC(=O)c2cc(Oc3ccc(OC)cc3)c(NC(=O)c3cc(OC)c(OC)c(OC)c3)cc2NC1=O`, the GI50 (in the test on LOX IMVI; with 786-0; in test [3]; in the test with HCT-116; in the test on SF-295; with A549) was over 50000 nM in each case.

With `CCN(CC)C(=O)C[C@@H]1NC(=O)c2cc(Oc3cc(C)cc(C)c3)c(NC(=O)c3cc(OC)c(OC)c(OC)c3Br)cc2NC1=O`, the GI50 in the test with LOX IMVI is under 5 nM; in the test on 786-0, 7 nM; in test [3] it was under 5 nM; with HCT-116 it was over 5 nM; in the test with SF-295, under 5 nM; with A549 it was under 5 nM.

Take `CCN(CC)C(=O)C[C@@H]1NC(=O)c2cc(Oc3cc(C)cc(C)c3)c(NC(=O)c3cc(OC)c(OC)c(OC)c3)cc2N(C)C1=O`: the GI50 (in the test with LOX IMVI; in the test with 786-0; in test [3]; in the test with HCT-116; with SF-295; in the test on A549) was over 50000 nM throughout.

`COC(=O)C[C@@H]1NC(=O)c2cc(Oc3cc(C)cc(C)c3)c(NC(=O)c3ccc(OC)c(OC)c3OC)cc2NC1=O`: the GI50 (with LOX IMVI; with 786-0; in [3]; with HCT-116; in the test on SF-295; in the test with A549) was over 50000 nM throughout.

For the compound `COC(=O)C[C@@H]1NC(=O)c2cc(Oc3cc(Cl)cc(Cl)c3)c(NC(=O)c3cc(OC)c(OC)c(OC)c3)cc2NC1=O`, the GI50 (in the test on LOX IMVI; in the test with 786-0; in test [3]; with HCT-116; in the test on SF-295; in the test with A549) was over 50000 nM each time.

On to `CCN(CC)C(=O)C[C@H]1C(=O)Nc2cc(NC(=O)c3c(Cl)c(OC)c(OC)c(OC)c3Br)c(Oc3cc(C)cc(C)c3)cc2C(=O)N1C`, for which the GI50 is 39 nM with LOX IMVI; 87 nM in the test with 786-0; 68 nM in test [3]; 70 nM in the test on HCT-116; 68 nM in the test with SF-295; 74 nM with A549.

In the case of `COC(=O)C[C@@H]1NC(=O)c2cc(OCCN3CCOCC3)c(NC(=O)c3cc(OC)c(OC)c(OC)c3)cc2NC1=O`, the 50% growth inhibitory concentration (GI50) (with LOX IMVI; in the test on 786-0; in test [3]; with HCT-116; in the test with SF-295; in the test with A549) was over 50000 nM in each case.

In the case of `COC(=O)C[C@@H]1NC(=O)c2cc(C#Cc3cc(C)cc(C)c3)c(NC(=O)c3cc(OC)c(OC)c(OC)c3)cc2NC1=O`, the GI50 (in the test on LOX IMVI; with 786-0; in test [3]; in the test on HCT-116; in the test on SF-295; with A549) was over 50000 nM throughout.

In the case of `COc1cc(C(=O)Nc2cc3c(cc2Oc2cc(C)cc(C)c2)C(=O)N[C@@H](Cc2ncnn2C)C(=O)N3)cc(OC)c1OC`, the GI50 turned out to be 70 nM in the test with LOX IMVI; 36000 nM with 786-0; 160 nM in [3]; 90 nM in the test on HCT-116; 180 nM with SF-295; 470 nM with A549.
